Laboratory results: patent EP1268431B1 (Wyeth, priority 2000, dated 2001)
Several values for one entry are separate records, joined by “and”; a condition that tells them apart may be missing. Equal values may be shown once.

Experiments:
[1] = test system: human adenocarcinoma cell line CaCo-2; assay: Cell Based Screen for Inhibitors of Raf Kinase, CaCo-2 cells; conditions: CaCo-2, four days, SRB
Procedure: (§1) • Cell Lines: Human adenocarcinoma cell line LoVo which is known to be growth inhibited by low nM concentrations of a reference standard inhibitor of Ras and human adenocarcinoma cell line CaCo-2, which is known to be growth resistant to the same reference compound. • Cell Media: RPMI 1640 with 10% Fetal Bovine Serum supplemented with L-glutamine and Pennicilin/Streptomycin. • Compounds: Supplied usually as a 10 mM stock in 100% DMSO. • Normal Saline: 150 mM NaCl • Trichloroacetic Acid (TCA): 50% (w/v) in water • Sulforhodamine B (SRB): 0.4% (w/v) in 1% Acetic Acid • Tris Base: 10 mM in water
(§2) Cells are plated at 2000 cells per well for cell line LoVo and 1500 cells for cell line CaCo-2 in 96 well plates. Cells are plated in media (200 µl) and allowed to adhere overnight at 37° C. At 24 hours post plating, compounds are added directly at a volume of 0.5 µl. For the qualitative screen (compounds screened at 25 µM) compound is added directly to cells. For the quantitative screen, compound is first diluted in DMSO to generate concentrations of compound or reference standard of: 1, 5, 10 and 25 µM. It is advisable to make the dilutions in an identical 96 well plate so that compounds may be added using a multichannel micropipettor set at 0.5 µl. The cells are then incubated for four days after which the media is removed using a 12 well manifold by first tipping the plate forward at a 45 degree angle and then inserting the manifold in an upright orientation to prevent the tips of the manifold from disturbing cells at the bottom of the plate. 200 µl of normal saline is then added to each well using an 8 well multichannel pipettor, followed by the careful addition of 50 µl of 50% TCA. The plates are then incubated for 2 hours at 4 ° C, after which the supernatant is removed using the same technique as above and the plated washed twice with 200 µl water. The plates are then air dried and 50 µl of SRB stock solution is carefully added so that the entire bottom of each well is covered. This again may be used using an 8 well multichannel pipettor. The SRB is incubated with fixed cells for 15 minutes at room temperature after which the SRB is removed with the manifold as described above and the plates washed twice with 350 µl of 1% acetic acid per well each time.The plates are then air dried after which the bound SRB is released from protein by the addition of 200 µl of Tris base. Resolubilizing the SRB is aided by placing the plates on a rotator for 15-30 minutes. The absorbance of each well is determined at 550 or 562 nm using a microtiter plate reader.
(§3) Each compound or dilution thereof is performed in triplicate. Outliers are identified by visual inspection of the data. Each plate should have a "0" control (vehicle only).
(§4) Quantitative Assay: A standard curve is constructed by plotting the concentration of compound against the average absorbance calculated at that concentration. A curve is plotted and the concentration at which the curve passes through the 50% the absorbance mark seen in the "0" control well is the IC50 calculated for that compound. […]

[2] = test system: Human adenocarcinoma cell line LoVo; assay: Cell Based Screen for Inhibitors of Raf Kinase, LoVo cells; conditions: four days, SRB
Procedure: as §1, §2, §3, §4

IC50 ([1]; Homo sapiens, Caco-2, 96 h) [nM]	IC50 ([2]; Homo sapiens, 96 h) [nM]	IC50 [1] [nM]	IC50 [2]	SMILES
980	6.8	–	–	Cn1ccnc1Sc1ccc(Nc2c(C#N)cnc3cc(-c4ccc(CN5CCOCC5)nc4)ccc23)cc1Cl [Example 109, 4-({3-Chloro-4-[(1-methyl-1H-imidazol-2-yl)sulfanyl]phenyl}amino)-7-[6-(4-morpholinylmethyl)-3-pyridinyl]-3-quinolinecarbonitrile]
2200	3800	–	–	Cn1ccnc1Sc1ccc(Nc2c(C#N)cnc3cc(-c4ccc(CN5CCOCC5)cc4)ccc23)cc1Cl [Example 63, 4-{3-Chloro-4-[(1-methyl-1H-imidazol-2-yl)sulfanyl]anilino}-7-[4-(4-morpholinylmethyl)phenyl]-3-quinolinecarbonitrile]
7000	430	–	–	N#Cc1cnc2cc(-c3ccc(CN4CCOCC4)c(CN4CCOCC4)c3)ccc2c1Nc1ccc(OCc2ccccc2)c(Cl)c1 [Example 132, 4-[4-(benzyloxy)-3-chloroanilino]-7-[3,4-bis(4-morpholinylmethyl)phenyl]-3-quinolinecarbonitrile]
> 1000	5.7	–	–	Cn1ccnc1Sc1ccc(Nc2c(C#N)cnc3cc(-c4ccc(N5CCC(O)CC5)nc4)ccc23)cc1Cl [Example 214, 4-({3-chloro-4-[(1-methyl-1H-imidazol-2-yl)sulfanyl]phenyl}amino)-7-[6-(4-hydroxy-1-piperidinyl)-3-pyridinyl]-3-quinolinecarbonitrile]
> 1000	330	–	–	Cn1ccnc1Sc1ccc(Nc2c(C#N)cnc3cc(-c4ccc(CN5CCC(C(=O)O)CC5)cn4)ccc23)cc1Cl [Example 175, 1-{[6-(4-{3-chloro-4-[(1-methyl-1H-imidazol-2-yl)sulfanyl]anilino}-3-cyano-7-quinolinyl)-3-pyridinyl]methyl}-4-piperidinecarboxylic acid]
1250	6	–	–	CN1CCN(Cc2ccc(-c3ccc4c(Nc5ccc(Sc6nccn6C)c(Cl)c5)c(C#N)cnc4c3)nc2)CC1 [Example 189, 4-{3-chloro-4-[(1-methyl-1H-imidazol-2-yl)sulanyl]anilino}-7-{5-[(4-methyl-1-piperazinyl)methyl]-2-pyridinyl}-3-quinolinecarbonitrile]
640	7.1	–	–	CC(C)N1CCN(Cc2ccc(-c3ccc4c(Nc5ccc(Sc6nccn6C)c(Cl)c5)c(C#N)cnc4c3)cc2)CC1 [Example 98, 4-({3-Chloro-4-[(1-methyl-1H-imidazol-2-yl)sulfanyl]phenyl}amino)-7-{4-[(4-isopropyl-1-piperazinyl)methyl]phenyl}-3-quinolinecarbonitrile]
> 10000	–	5500	9 nM	Cn1ccnc1Sc1ccc(Nc2c(C#N)cnc3cc(-c4ccc(CN5CCOCC5)cn4)ccc23)cc1Cl [Example 187, 4-{3-chloro-4-[(1-methyl-1H-imidazol-2-yl)sulfanyl]anilino}-7-[5-(4-morpholinylmethyl)-2-pyridinyl]-3-quinolinecarbonitrile]
1500	40	–	–	COc1cc2c(Nc3ccc(Sc4nccn4C)c(Cl)c3)c(C#N)cnc2cc1-c1ccc(CN2CCOCC2)cc1 [Example 123, 4-{3-Chloro-4-[(1-methyl-1H-imidazol-2-yl)sulfanyl]anilino}-6-methoxy-7-[4-(4-morpholinylmethyl)phenyl]-3-quinolinecarbonitrile]
> 1000	7.9	–	–	Cn1ccnc1Sc1ccc(Nc2c(C#N)cnc3cc(-c4ccc(CN5CCC(O)CC5)cn4)ccc23)cc1Cl [Example 172, 4-{3-chloro-4-[(1-methyl-1H-imidazol-2-yl)sulfanyl]anilino}-7-{5-[(4-hydroxy-1-piperidinyl)methyl]-2-pyridinyl}-3-quinolinecarbonitrile]
> 1000	6.8	–	–	CN1CCN(Cc2ccc(-c3ccc4c(Nc5ccc(Sc6nccn6C)c(Cl)c5)c(C#N)cnc4c3)cc2)CC1 [Example 135, 4-{3-chloro-4-[(1-methyl-1H-imidazol-2-yl)sulfanyl]anilino}-7-{4-[(4-methyl-1-piperazinyl)methyl]phenyl}-3-quinolinecarbonitrile]
1900	20	2800	15 nM	COc1cc2c(Nc3ccc(Sc4nccn4C)c(Cl)c3)c(C#N)cnc2cc1-c1csc(CN2CCOCC2)c1 [Example 125, 4-{3-Chloro-4-[(1-methyl-1H-imidazol-2-yl)sulfanyl]anilino}-6-methoxy-7-[5-(4-morpholinylmethyl)-3-thienyl]-3-quinolinecarbonitrile]
> 10000	> 10000	–	–	N#Cc1cnc2cc(-c3csc(CN4CCOCC4)c3)ccc2c1Nc1ccc(Cc2ccccc2)cc1 [Example 8, 4-(4-Benzylanilino)-7-[5-(4-morpholinylmethyl)-3-thienyl]-3-quinolinecarbonitrile]
1000	290	600	440 nM and 310 nM	N#Cc1cnc2cc(-c3ccc(CN4CCOCC4)cn3)ccc2c1Nc1ccc(Oc2ccccc2)cc1 [Example 56, 7-[5-(4-Morpholinylmethyl)-2-pyridinyl]-4-(4-phenoxyanilino)-3-quinolinecarbonitrile]
1100	< 5	550	2.9 nM	CN1CCN(c2ccc(-c3ccc4c(Nc5ccc(Sc6nccn6C)c(Cl)c5)c(C#N)cnc4c3)cn2)CC1 [Example 196, 4-{3-chloro-4-[(1-methyl-1H-imidazol-2-yl)sulfanyl]anilino}-7-[6-(4-methyl-1-piperazinyl)-3-pyridinyl]-3-quinolinecarbonitrile]
> 1000	74	–	–	CN1CCN(Cc2ccc(-c3ccc4c(Nc5ccc(Sc6nccn6C)c(Cl)c5)c(C#N)cnc4c3)cn2)CC1 [Example 221, 4-({3-chloro-4-[(1-methyl-1H-imidazol-2-yl)sulfanyl]phenyl}amino)-7-{6-[(4-methyl-1-piperazinyl)methyl]-3-pyridinyl}-3-quinolinecarbonitrile]
> 1000	25	–	–	COC(=O)C1CCN(Cc2ccc(-c3ccc4c(Nc5ccc(Sc6nccn6C)c(Cl)c5)c(C#N)cnc4c3)nc2)CC1 [Example 107, Methyl 1-{[6-(4-{3-chloro-4-[(1-methyl-1H-imidazol-2-yl)sulfanyl]anilino}-3-cyano-7-quinolinyl)-3-pyridinyl]methyl}-4-piperidinecarboxylate]
> 1000	15	–	–	Cn1ccnc1Sc1ccc(Nc2c(C#N)cnc3cc(-c4ccc(CN5CCSCC5)cn4)ccc23)cc1Cl [Example 219]
590	3.2	–	–	Cn1ccnc1Sc1ccc(Nc2c(C#N)cnc3cc(-c4ccc(N5CCC(N6CCCC6)CC5)nc4)ccc23)cc1Cl [Example 210, 4-({3-chloro-4-[(1-methyl-1H-imidazol-2-yl)sulfanyl]phenyl}amino)-7-{6-[4-(1-pyrrolidinyl)-1-piperidinyl]-3-pyridinyl}-3-quinolinecarbonitrile]
> 1000	45.2	–	–	CCOC(=O)C1CCN(c2ccc(-c3ccc4c(Nc5ccc(Sc6nccn6C)c(Cl)c5)c(C#N)cnc4c3)cn2)CC1 [Example 213, ethyl 1-{5-[4-({3-chloro-4-[(1-methyl-1H-imidazol-2-yl)sulfanyl]phenyl}amino)-3-cyano-7-quinolinyl]-2-pyridinyl}-4-piperidinecarboxylate]
> 1000	48.5	–	–	Cn1ccnc1Sc1ccc(Nc2c(C#N)cnc3cc(-c4ccc(CN5CCN(C(=O)OC(C)(C)C)CC5)cc4)ccc23)cc1Cl [Example 137, tert-butyl 4-{4-[4-({3-chloro-4-[(1-methyl-1H-imidazol-2-yl)sulfanyl]phenyl}amino)-3-cyano-7-quinolinyl]benzyl}-1-piperazinecarboxylate]
> 1000	6.8	–	–	Cn1ccnc1Sc1ccc(Nc2c(C#N)cnc3cc(-c4ccc(CN5CCOCC5)o4)ccc23)cc1Cl [Example 154, 4-{3-chloro-4-[(1-methyl-1H-imidazol-2-yl)sulfanyl]anilino}-7-[5-(4-morpholinylmethyl)-2-furyl]-3-quinolinecarbonitrile]
